Earlier results, collected in patent US8716482B2, “Substituted aminopiperidines as dipeptidyl peptidase-IV inhibitors for the treatment of diabetes” (Merck Sharp & Dohme Corp., priority 2009, dated 2014).

What was measured:
hematopoiesis = details: mouse, cyclophosphamide-induced neutropenia
DPP-4 = DPP-4 (Homo sapiens (Human), UniProt P27487)
Sequence of DPP-4 (P27487 39-766, species assumed): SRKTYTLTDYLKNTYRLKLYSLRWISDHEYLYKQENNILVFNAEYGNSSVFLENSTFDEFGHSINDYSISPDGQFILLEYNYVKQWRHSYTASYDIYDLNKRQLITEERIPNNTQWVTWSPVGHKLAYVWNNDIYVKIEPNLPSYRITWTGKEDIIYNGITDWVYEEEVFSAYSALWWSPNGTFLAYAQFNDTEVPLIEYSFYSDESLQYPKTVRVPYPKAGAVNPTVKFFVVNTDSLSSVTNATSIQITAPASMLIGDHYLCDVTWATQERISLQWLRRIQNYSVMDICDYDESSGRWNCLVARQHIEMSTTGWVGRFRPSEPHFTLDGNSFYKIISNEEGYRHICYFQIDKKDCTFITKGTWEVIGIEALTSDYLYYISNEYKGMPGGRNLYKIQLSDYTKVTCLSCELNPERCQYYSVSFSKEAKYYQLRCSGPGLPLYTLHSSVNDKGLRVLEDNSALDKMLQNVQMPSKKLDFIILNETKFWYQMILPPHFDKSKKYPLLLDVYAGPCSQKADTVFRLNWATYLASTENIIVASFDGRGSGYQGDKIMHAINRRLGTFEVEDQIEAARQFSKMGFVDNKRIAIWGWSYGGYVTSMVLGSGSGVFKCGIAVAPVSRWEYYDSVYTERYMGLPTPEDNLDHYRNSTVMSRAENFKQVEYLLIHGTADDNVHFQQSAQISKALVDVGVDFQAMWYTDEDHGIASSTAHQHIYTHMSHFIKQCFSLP

Compound	hematopoiesis (hematopoiesis)	degradation of GRF in plasma to GRF[3-44] (DPP-4)
CC(C)[C@H](N)C(=O)N1CCC[C@H]1B(O)O [Val-Boro-Pro]	stimulated hematopoiesis	–
diprotin A	–	prevented
